Data reported in patent US11850247B2, “Antiviral compounds” (REGENTS OF THE UNIVERSITY OF MINNESOTA, priority 2020, dated 2023).

Assays:
HIV-1 = assay: Anti-HIV-1 activity in TZM-GFP cells (viral LTR-activated GFP expression); type: cell-based; conditions: for inhibition at 2 µM: Human immunodeficiency virus 1, 2 μM compound; for inhibition at 2 µM / inhibition at 20 µM: HIV-1 MOI=1; for inhibition at 20 µM: Human immunodeficiency virus 1, 20 μM compound; for EC50: Human immunodeficiency virus 1, HIV-1 strain MOI=1, GFP positive cells counted after 48 hours
Experimental: The potency of HIV-1 inhibition by a compound was based on its inhibitory effect on viral LTR-activated GFP expression compared with that of compound-free (DMSO) controls. Briefly, TZM-GFP cells were plated at density of 1×10^4 cells per well in a 96-well plate. 24 hours later, media was replaced with increasing concentrations of compound. 24 hours post treatment, cells were exposed to an HIV-1 strain (MOI=1).
(§1) The cytotoxicity of each compound was also determined in TZM-GFP cells. Cells were plated at a density of 1×10^4 cells per well in a 96-well plate and were continuously exposed to increasing concentrations of a compound for 72 hours. The number of viable cells in each well was determined using a Cell Proliferation Kit II (XTT), and 50% cytotoxicity concentration (CC50) values were determined. All the cell-based assays were conducted in duplicate and in at least two independent experiments. For the EC50 and CC50 dose responses, values were plotted in GraphPad Prism 5 and analyzed with the log (inhibitor) vs. normalized response-variable slope equation. Final values were calculated in each independent assay and the average values were determined. Statistical analysis (calculation of standard deviation) was performed by using Microsoft Excel.

[1] = Cytotoxicity in TZM-GFP cells (XTT); type: cell-based; conditions: human, 72 hours exposure, XTT
Experimental: as §1

[2] = target: covalently-crosslinked hexameric CA A14C/E45C/W184A/M185A (CA121) (Human immunodeficiency virus type 1 group M subtype B, UniProt P12493, A146C/E177C/M317A/W316A); assay: Thermal shift assay (TSA), CA hexamer stability; type: binding, HIV-1; conditions: compound 20 μM, ΔTm=Tm−T0 vs DMSO

SMILES	inhibition at 2 µM (HIV-1) [%]	inhibition at 20 µM (HIV-1) [%]	CC50 at 72 h [1] [µM]	TSA ΔTm (° C.) [2] [°C]	EC50 (HIV-1) [nM]
Cc1cccc2c1NC(=O)C2CC(=O)N[C@@H](Cc1ccccc1)C(=O)N(C)c1ccccc1 (stereo partly drawn) [Example 1, (2S)—N-methyl-2-(2-(7-methyl-2-oxoindolin-3-yl)acetamido)-N,3-diphenylpropanamide]	0	91	> 50	−1.2	–
Cc1cccc2c1NC(=O)C2CC(=O)N[C@@H](Cc1ccccc1)C(=O)N(C)c1ccc(Cl)cc1 (stereo partly drawn) [Example 2, (2S)—N-(4-chlorophenyl)-N-methyl-2-(2-(7-methyl-2-oxoindolin-3-yl)acetamido)-3-phenylpropanamide]	17	96	~50	−0.4	–
O=C(Cc1c[nH]c2ccccc12)N[C@@H](Cc1ccccc1)c1ncccc1-c1ccc(Cl)cc1 [Example 54, (S)-2-(1H-indol-3-yl)-N-(2-phenyl-1-(3-(4-chlorophenyl)pyridin-2-yl)ethyl)acetamide]	–	–	–	7.7 ± 0.2	790 ± 250
COc1ccc2[nH]cc(CC(=O)N[C@@H](Cc3ccccc3)c3ncccc3-c3ccc(Cl)cc3)c2c1 [Example 55, (S)-2-(5-methoxy-1H-indol-3-yl)-N-(2-phenyl-1-(3-(4-chlorophenyl)pyridin-2-yl)ethyl)acetamide]	–	–	–	7.8 ± 0.3	1400 ± 700
O=C(Cc1c[nH]c2ccc(O)cc12)N[C@@H](Cc1ccccc1)c1ncccc1-c1ccc(Cl)cc1 [Example 56, (S)-2-(5-hydroxy-1H-indol-3-yl)-N-(2-phenyl-1-(3-(4-chlorophenyl)pyridin-2-yl)ethyl)acetamide]	–	–	–	8.7 ± 0.3	310 ± 70
CCn1cc(CC(=O)N[C@@H](Cc2ccccc2)c2ncccc2-c2ccc(Cl)cc2)c2ccccc21 [Example 57, (S)-2-(1-ethyl-1H-indol-3-yl)-N-(2-phenyl-1-(3-(4-chlorophenyl)pyridin-2-yl)ethyl)acetamide]	–	–	–	6.6 ± 0.2	2700 ± 200
CCn1cc(CC(=O)N[C@@H](Cc2ccccc2)c2ncccc2-c2ccc(Cl)cc2)c2cc(OC)ccc21 [Example 58, (S)-2-(1-ethyl-5-methoxy-1H-indol-3-yl)-N-(2-phenyl-1-(3-(4-chlorophenyl)pyridin-2-yl)ethyl)acetamide]	–	–	–	5.9 ± 0.2	3600 ± 200
COc1ccc2[nH]cc(CC(=O)N[C@@H](Cc3ccccc3)c3ncccc3-c3ccc(Br)cc3)c2c1 [Example 59, (S)-2-(5-methoxy-1H-indol-3-yl)-N-(2-phenyl-1-(3-(4-bromophenyl)pyridin-2-yl)ethyl)acetamide]	–	–	–	6.3 ± 0.6	2100 ± 800
CCn1cc(CC(=O)N[C@@H](Cc2ccccc2)c2ncccc2-c2ccc(Br)cc2)c2ccccc21 [Example 60, (S)-2-(1-ethyl-1H-indol-3-yl)-N-(2-phenyl-1-(3-(4-bromophenyl)pyridin-2-yl)ethyl)acetamide]	–	–	–	6.3 ± 0.1	3200 ± 300
COc1ccc2[nH]cc(CC(=O)N[C@@H](Cc3ccccc3)c3nccn3-c3ccc(Cl)cc3)c2c1 [Example 61, (S)-2-(5-methoxy-1H-indol-3-yl)-N-(2-phenyl-1-(1-(4-chlorophenyl)-1H-imidazol-2-yl)ethyl)acetamide]	–	–	–	4.0 ± 0.3	3300 ± 30
COc1ccc2[nH]cc(CC(=O)N[C@@H](Cc3ccccc3)c3nccn3-c3ccc(Br)cc3)c2c1 [Example 62, (S)-2-(5-methoxy-1H-indol-3-yl)-N-(2-phenyl-1-(1-(4-bromophenyl)-1H-imidazol-2-yl)ethyl)acetamide]	–	–	–	2.8 ± 0.3	3500 ± 300
COc1ccc2[nH]cc(CC(=O)N[C@@H](Cc3ccccc3)c3nccn3-c3ccc(I)cc3)c2c1 [Example 63, (S)-2-(5-methoxy-1H-indol-3-yl)-N-(2-phenyl-1-(1-(4-iodophenyl)-1H-imidazol-2-yl)ethyl)acetamide]	–	–	–	2.7 ± 0.1	3300 ± 200
